Reference: PMC4579270, “Identification and Characterization of an Irreversible Inhibitor of CDK2” (Chemistry & Biology, 2015)

Experiments:
Assay in all cases: Dundee protein kinase screen
Format in all cases: biochemical
S6K1 = S6K1 (Homo sapiens, UniProt P23443); conditions: S6K1, 1µM; read-out: %Remaining activity at 1µM NU6300
Procedure, shortened: (§1)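 Selectivity panel of 131 protein kinases, inhibitor tested at a single concentration of 1 µM; values are % kinase activity remaining, mean of duplicates. Re-test of selected kinases used 0.5 µM in the standard format and again after a 4 hour pre-incubation with the inhibitor.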

MKK2 = MKK2 (Homo sapiens, UniProt P36507); conditions: MKK2, 1µM; read-out: %Remaining activity at 1µM NU6300
Procedure, shortened: as §1

PRK2 = PRK2 (Homo sapiens, UniProt Q16513); conditions: PRK2, 1µM; read-out: %Remaining activity at 1µM NU6300
PRK2, sequence (Q16513 whole entry): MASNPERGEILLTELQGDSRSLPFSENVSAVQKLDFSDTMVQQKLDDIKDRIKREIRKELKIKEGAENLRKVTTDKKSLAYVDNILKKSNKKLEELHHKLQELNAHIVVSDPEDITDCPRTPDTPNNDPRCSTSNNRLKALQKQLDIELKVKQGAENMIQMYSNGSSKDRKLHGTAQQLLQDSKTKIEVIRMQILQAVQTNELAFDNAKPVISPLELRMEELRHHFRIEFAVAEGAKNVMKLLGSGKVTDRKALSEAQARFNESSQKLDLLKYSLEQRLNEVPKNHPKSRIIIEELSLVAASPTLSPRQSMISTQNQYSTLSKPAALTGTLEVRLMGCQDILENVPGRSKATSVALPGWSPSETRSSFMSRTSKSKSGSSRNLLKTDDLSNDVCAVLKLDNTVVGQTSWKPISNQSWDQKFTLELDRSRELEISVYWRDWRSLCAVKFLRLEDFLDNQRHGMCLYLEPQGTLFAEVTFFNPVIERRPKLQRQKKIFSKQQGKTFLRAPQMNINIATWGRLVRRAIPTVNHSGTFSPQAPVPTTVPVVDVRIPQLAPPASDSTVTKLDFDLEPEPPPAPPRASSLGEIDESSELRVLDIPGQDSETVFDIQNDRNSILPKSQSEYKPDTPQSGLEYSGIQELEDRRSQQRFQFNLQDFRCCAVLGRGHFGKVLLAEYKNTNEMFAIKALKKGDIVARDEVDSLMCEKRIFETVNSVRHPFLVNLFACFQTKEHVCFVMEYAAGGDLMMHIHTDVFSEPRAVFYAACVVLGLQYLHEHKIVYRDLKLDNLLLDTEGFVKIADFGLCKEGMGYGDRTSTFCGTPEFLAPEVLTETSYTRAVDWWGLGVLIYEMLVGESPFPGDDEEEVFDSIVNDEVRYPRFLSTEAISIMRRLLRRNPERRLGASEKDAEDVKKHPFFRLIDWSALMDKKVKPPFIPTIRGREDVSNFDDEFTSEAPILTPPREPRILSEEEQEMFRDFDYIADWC
Procedure, shortened: as §1

DAPK1 = DAPK1 (Homo sapiens, UniProt P53355); conditions: DAPK1, 1µM; read-out: %Remaining activity at 1µM NU6300
Procedure, shortened: as §1

PKCζ = PKCζ (Homo sapiens, UniProt Q05513); conditions: read-out: %Remaining activity at 1µM NU6300
Procedure, shortened: as §1

MNK1 = MNK1 (Homo sapiens, UniProt Q9BUB5); conditions: MNK1, 1µM; read-out: %Remaining activity at 1µM NU6300
Procedure, shortened: as §1

MST2 = molecular target: T1, MST2 (Homo sapiens, UniProt Q13188); conditions: MST2, 1µM; read-out: %Remaining activity at 1µM NU6300
T1 sequence (Q13188 1-491): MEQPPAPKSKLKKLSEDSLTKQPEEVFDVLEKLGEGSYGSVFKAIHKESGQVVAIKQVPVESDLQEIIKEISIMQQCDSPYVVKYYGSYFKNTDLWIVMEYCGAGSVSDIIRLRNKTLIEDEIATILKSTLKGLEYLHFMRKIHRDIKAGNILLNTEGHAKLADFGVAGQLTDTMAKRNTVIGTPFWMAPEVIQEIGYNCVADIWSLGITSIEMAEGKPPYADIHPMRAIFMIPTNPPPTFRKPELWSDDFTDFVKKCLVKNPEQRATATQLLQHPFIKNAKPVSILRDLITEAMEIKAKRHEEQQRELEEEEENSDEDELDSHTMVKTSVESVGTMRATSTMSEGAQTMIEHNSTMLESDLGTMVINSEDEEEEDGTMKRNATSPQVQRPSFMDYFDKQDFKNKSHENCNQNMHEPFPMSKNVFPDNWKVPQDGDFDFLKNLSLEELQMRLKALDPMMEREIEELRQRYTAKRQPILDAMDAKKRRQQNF
Procedure, shortened: as §1

MINK1 = MINK1 (Homo sapiens, UniProt Q8N4C8); conditions: MINK1, 1µM; read-out: %Remaining activity at 1µM NU6300
MINK1, sequence (Q8N4C8 whole entry): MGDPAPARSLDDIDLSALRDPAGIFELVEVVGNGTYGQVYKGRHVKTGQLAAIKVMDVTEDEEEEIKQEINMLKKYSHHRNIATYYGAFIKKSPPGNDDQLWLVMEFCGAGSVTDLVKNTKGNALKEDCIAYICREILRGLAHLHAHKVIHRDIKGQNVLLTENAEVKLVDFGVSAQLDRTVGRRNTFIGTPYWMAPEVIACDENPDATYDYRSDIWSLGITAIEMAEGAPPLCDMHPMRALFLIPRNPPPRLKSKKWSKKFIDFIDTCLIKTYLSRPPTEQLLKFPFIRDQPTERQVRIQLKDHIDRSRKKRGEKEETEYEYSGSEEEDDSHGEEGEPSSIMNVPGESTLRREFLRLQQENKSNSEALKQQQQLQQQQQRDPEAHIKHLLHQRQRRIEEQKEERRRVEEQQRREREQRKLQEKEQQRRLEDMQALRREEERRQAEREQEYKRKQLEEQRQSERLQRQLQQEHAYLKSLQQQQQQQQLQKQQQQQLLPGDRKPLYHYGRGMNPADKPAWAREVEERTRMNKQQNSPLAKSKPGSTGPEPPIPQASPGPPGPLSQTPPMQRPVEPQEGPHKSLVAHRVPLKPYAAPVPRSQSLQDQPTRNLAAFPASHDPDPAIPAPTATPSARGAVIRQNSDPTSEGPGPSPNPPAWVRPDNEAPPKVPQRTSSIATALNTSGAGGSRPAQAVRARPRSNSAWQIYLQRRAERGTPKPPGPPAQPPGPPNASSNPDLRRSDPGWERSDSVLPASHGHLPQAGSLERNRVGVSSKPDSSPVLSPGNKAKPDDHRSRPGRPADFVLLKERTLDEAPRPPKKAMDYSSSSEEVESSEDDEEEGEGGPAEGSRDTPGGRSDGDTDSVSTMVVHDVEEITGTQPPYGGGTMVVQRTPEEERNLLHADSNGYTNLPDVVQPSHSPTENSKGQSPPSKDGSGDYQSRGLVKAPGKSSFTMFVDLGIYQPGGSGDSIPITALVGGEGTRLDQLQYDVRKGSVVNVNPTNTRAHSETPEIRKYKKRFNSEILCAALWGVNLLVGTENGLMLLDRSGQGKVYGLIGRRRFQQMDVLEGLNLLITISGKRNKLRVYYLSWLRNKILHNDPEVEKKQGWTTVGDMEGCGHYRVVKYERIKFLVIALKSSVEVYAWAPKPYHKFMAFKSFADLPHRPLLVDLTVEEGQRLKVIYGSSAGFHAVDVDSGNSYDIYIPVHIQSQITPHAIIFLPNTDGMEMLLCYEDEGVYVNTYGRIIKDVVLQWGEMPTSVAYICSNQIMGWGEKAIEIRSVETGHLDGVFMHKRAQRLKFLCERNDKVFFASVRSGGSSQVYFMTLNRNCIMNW
Procedure, shortened: as §1

EPH-B1 = EPH-B1 (Homo sapiens, UniProt P54762); conditions: EPH-B1, 1µM; read-out: %Remaining activity at 1µM NU6300
Procedure, shortened: as §1

SIK3 = SIK3 (Homo sapiens, UniProt Q9Y2K2); conditions: SIK3, 1µM; read-out: %Remaining activity at 1µM NU6300
Procedure, shortened: as §1

GSK3β = GSK3β (Homo sapiens, UniProt P49841); conditions: read-out: %Remaining activity at 1µM NU6300
Procedure, shortened: as §1

TIE2 = TIE2 (Homo sapiens, UniProt Q02763); conditions: TIE2, 1µM; read-out: %Remaining activity at 1µM NU6300
Procedure, shortened: as §1

TrkA = TrkA (Homo sapiens, UniProt P04629); conditions: read-out: %Remaining activity at 1µM NU6300
Procedure, shortened: as §1

CDK9-Cyclin T1 = CDK9-Cyclin T1 (Homo sapiens, UniProt P50750); conditions: CDK9-Cyclin T1, 1µM; read-out: %Remaining activity at 1µM NU6300
CDK9-Cyclin T1, sequence (P50750 whole entry): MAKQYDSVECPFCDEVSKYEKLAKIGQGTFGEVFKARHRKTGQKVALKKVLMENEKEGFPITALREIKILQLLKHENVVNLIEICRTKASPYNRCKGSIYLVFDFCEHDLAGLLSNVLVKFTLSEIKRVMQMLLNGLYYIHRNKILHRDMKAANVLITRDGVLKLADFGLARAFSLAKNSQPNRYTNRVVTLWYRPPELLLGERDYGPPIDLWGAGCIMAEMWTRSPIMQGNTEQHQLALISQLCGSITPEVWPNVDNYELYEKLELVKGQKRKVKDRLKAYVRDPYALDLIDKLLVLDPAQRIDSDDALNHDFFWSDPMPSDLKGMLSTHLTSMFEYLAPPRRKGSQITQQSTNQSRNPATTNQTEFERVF
CDK9-Cyclin T1, sequence (O60563 whole entry partner): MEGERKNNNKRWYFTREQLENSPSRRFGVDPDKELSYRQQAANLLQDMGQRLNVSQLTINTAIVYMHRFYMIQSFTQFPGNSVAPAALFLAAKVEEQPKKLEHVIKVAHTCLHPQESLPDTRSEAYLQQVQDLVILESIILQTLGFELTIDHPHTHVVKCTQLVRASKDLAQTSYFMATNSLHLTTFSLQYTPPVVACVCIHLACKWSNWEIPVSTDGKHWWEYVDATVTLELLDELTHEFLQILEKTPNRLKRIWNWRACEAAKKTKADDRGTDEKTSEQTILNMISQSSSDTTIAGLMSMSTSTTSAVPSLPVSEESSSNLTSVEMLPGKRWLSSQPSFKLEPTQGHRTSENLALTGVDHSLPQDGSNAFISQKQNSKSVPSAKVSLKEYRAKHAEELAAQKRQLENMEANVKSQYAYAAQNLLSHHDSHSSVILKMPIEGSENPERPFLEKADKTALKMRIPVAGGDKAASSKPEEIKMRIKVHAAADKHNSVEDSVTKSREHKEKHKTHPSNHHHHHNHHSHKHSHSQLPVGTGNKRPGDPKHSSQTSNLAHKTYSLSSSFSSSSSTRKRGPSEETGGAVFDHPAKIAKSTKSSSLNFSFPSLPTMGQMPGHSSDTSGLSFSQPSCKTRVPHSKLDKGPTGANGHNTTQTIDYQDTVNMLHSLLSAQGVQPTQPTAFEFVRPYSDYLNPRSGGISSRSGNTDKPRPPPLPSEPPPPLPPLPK
Procedure, shortened: as §1

CAMKKβ = CAMKKβ (Homo sapiens, UniProt Q96RR4); conditions: read-out: %Remaining activity at 1µM NU6300
Procedure, shortened: as §1

TTBK1 = TTBK1 (Homo sapiens, UniProt Q5TCY1); conditions: TTBK1, 1µM; read-out: %Remaining activity at 1µM NU6300
TTBK1, sequence (Q5TCY1 whole entry): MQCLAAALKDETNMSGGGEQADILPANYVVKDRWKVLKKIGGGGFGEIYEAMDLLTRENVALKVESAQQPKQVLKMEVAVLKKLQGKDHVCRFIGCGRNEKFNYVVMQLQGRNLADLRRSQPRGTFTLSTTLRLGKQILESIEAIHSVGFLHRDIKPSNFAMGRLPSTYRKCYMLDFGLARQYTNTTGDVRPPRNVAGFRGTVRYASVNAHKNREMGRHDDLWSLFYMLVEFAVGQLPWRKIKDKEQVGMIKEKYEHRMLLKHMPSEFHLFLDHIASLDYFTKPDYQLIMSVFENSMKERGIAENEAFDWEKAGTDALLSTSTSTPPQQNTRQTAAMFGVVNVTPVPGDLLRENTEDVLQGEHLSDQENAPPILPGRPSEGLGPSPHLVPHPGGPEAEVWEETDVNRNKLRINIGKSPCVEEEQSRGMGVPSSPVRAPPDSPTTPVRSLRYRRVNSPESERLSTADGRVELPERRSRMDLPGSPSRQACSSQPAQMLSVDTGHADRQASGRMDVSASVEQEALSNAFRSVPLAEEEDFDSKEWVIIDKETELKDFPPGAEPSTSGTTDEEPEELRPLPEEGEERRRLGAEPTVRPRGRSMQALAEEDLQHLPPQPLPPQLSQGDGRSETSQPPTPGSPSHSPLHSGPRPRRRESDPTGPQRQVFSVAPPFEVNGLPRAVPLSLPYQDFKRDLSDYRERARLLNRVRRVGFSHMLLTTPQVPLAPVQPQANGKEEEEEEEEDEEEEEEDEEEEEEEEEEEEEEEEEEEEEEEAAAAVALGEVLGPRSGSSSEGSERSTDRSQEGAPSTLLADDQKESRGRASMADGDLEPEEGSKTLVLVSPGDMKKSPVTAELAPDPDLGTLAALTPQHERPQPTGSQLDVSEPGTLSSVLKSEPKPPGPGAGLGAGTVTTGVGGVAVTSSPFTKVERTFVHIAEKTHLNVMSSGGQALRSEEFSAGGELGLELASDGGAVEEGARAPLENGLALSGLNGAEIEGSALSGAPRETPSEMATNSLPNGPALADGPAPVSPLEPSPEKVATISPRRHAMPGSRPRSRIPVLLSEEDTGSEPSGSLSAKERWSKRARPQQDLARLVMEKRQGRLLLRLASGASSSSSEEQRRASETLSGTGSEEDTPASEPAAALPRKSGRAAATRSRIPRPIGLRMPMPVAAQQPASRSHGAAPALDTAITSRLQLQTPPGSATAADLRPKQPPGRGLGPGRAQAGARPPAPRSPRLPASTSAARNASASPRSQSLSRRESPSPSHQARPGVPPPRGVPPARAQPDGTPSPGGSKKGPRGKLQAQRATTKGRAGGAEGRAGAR
Procedure, shortened: as §1

HER4 = HER4 (Homo sapiens, UniProt Q15303); conditions: HER4, 1µM; read-out: %Remaining activity at 1µM NU6300
Procedure, shortened: as §1

Which results are given for `C=CS(=O)(=O)c1ccc(Nc2nc(OCC3CCCCC3)c3nc[nH]c3n2)cc1` [NU6300, 6-(cyclohexylmethoxy)-N-(4-(vinylsulfonyl)phenyl)-9H-purin-2-amine]?
remaining activity at 1 µM (S6K1): 82%; remaining activity at 1 µM (MKK2): 84%; remaining activity at 1 µM (PRK2): 50%; remaining activity at 1 µM (DAPK1): 83%; remaining activity at 1 µM (PKCζ): 100%; remaining activity at 1 µM (MNK1): 102%; remaining activity at 1 µM (MST2): 41%; remaining activity at 1 µM (MINK1): 69%; remaining activity at 1 µM (EPH-B1): 78%; remaining activity at 1 µM (SIK3): 76%; remaining activity at 1 µM (GSK3β): 42%; remaining activity at 1 µM (TIE2): 122%; remaining activity at 1 µM (TrkA): 59%; remaining activity at 1 µM (CDK9-Cyclin T1): 87%; remaining activity at 1 µM (CAMKKβ): 73%; remaining activity at 1 µM (TTBK1): 83%; remaining activity at 1 µM (HER4): 73%
